pIC50: −log10 of the molar value.
These compounds were tested against T1, NaV 1.7 (Homo sapiens, UniProt Q15858) (assay: E-VIPR optical membrane potential assay with electrical stimulation). Settings: active against one or more sodium channels; assay/subtype not specified in Table 4; read-out: IC50 Binned Activity Data.
T1 construct: expressed in transfected cells; host or cells: HEK cells
Assay type: cell-based
Method in brief: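 HEK cells expressing human NaV1.7, loaded with CC2-DMPE/DiSBAC6(3) FRET dyes, then exposed to compounds for 20-35 min at room temperature (0.625% DMSO). Electrical stimulation applied for 9 s with 400 Hz scanning. Read-out is the background-subtracted 460/580 nm emission ratio, normalized.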

T1 sequence (Q15858 whole entry): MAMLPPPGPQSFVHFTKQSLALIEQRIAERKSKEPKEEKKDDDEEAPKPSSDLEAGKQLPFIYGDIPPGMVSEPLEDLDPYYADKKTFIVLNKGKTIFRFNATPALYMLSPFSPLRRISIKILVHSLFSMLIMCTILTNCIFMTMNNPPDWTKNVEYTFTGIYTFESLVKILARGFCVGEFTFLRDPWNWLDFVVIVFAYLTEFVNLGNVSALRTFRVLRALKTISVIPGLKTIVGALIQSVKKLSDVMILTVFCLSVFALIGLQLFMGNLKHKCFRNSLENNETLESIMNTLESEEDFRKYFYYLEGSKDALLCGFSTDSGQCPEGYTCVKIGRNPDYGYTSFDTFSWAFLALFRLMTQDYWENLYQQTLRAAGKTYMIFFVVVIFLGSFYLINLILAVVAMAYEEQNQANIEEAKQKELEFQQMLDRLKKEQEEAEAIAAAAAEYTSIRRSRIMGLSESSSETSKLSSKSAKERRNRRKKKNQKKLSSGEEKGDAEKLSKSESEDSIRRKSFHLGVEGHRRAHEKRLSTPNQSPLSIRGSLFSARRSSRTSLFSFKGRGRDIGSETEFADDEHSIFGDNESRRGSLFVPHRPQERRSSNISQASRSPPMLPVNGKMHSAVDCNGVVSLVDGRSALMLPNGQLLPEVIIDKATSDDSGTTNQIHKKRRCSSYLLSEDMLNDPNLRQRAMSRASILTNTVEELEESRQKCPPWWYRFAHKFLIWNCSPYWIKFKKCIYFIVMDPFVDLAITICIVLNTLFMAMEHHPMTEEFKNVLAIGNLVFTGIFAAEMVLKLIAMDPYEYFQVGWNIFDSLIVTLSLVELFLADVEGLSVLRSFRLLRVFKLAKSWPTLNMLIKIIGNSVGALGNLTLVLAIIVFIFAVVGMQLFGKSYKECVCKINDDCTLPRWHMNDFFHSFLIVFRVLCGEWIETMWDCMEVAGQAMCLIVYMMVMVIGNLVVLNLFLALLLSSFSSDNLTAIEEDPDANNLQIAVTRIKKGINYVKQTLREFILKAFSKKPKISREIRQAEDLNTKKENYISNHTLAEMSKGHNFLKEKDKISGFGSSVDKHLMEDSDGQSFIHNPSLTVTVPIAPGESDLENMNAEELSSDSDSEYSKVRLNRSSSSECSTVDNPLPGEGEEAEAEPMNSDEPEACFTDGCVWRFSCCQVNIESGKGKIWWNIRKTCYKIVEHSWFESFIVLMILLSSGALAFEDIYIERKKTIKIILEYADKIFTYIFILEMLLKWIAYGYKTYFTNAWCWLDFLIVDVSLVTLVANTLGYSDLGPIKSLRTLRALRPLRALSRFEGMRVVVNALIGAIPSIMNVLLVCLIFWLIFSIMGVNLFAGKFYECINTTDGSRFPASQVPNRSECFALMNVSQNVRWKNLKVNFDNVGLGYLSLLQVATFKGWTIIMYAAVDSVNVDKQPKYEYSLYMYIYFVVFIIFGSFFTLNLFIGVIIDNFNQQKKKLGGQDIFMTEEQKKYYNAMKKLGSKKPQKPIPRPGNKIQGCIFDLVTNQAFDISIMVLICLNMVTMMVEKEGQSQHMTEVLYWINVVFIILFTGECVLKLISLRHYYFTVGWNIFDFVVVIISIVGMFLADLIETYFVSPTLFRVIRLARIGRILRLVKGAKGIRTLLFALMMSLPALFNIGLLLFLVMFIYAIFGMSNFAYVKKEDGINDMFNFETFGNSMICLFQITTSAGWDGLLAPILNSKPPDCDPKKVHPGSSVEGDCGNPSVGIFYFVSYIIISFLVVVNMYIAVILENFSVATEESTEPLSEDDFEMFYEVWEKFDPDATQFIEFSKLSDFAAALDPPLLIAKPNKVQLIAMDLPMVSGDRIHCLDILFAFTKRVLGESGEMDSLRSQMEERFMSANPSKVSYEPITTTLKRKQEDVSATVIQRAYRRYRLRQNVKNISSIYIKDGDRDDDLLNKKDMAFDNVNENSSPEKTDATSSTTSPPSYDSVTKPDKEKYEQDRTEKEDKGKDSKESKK

Compound | pIC50
COc1nc(C(=O)N2CCC3(c4ccccc4)CC3C2)ccc1OCC(C)(C)F (stereo not shown) [Compound 125] | ≥ 5.70
O=C(c1cccc2cccnc12)N1CCC2(c3ccccc3)CC2C1 (stereo not shown) [Compound 143] | ≥ 5.70
Cc1nc([C@]23CCN(C(=O)c4ccc(OCCOC(F)(F)F)c(C)c4)CC2OCO3)cs1 (stereo partly shown) [Compound 144] | ≥ 5.70
O=C(c1ccc(OCCOC(F)(F)F)c(Cl)c1)N1CC[C@]2(c3ncccc3F)OCOC2C1 (stereo partly shown) [Compound 145] | ≥ 5.70
O=C(c1ccc(OCC2CC(F)(F)C2)c(Cl)c1)N1CC[C@]2(c3ccccn3)OCOC2C1 (stereo partly shown) [Compound 146] | ≥ 5.70
COc1cc(C(=O)N2CCC3(c4ccccc4)CC3C2)ccc1C(C)(C)O (stereo not shown) [Compound 147] | ≥ 5.70
COc1cc(C(=O)N2CC[C@@]3(c4ccccc4)OCOC3C2)ccc1OCCOC(F)(F)F (stereo partly shown) [Compound 148] | ≥ 5.70
Cc1nc([C@]23CCN(C(=O)c4ccc(OCCOC(F)(F)F)c(Cl)c4)CC2OCO3)cs1 (stereo partly shown) [Compound 149] | ≥ 5.70
COc1cc(C(=O)N2CC[C@]3(c4ccccc4)OCOC3C2)ccc1OCCOC(F)(F)F (stereo partly shown) [Compound 150] | ≥ 5.70
COc1cc(C(=O)N2CCC3(c4ccccc4)CC3C2)ccc1OCCC(C)C (stereo not shown) [Compound 151] | ≥ 5.70
Cc1cc(C(=O)N2CC[C@]3(c4ncccc4Cl)OCOC3C2)ccc1OCC(C)(C)F (stereo partly shown) [Compound 152] | ≥ 5.70
COc1nc(C(=O)N2CC[C@]3(c4cc(C(F)(F)F)ccn4)OCOC3C2)ccc1OCCOC(F)(F)F (stereo partly shown) [Compound 153] | ≥ 5.70
COc1cc(C(=O)N2CC[C@]3(c4cccc(C)n4)OCOC3C2)ccc1OCCOC(F)(F)F (stereo partly shown) [Compound 154] | ≥ 5.70
COc1cc(C(=O)N2CC[C@]3(c4ncccc4Cl)OCOC3C2)ccc1OCCOC(F)(F)F (stereo partly shown) [Compound 155] | ≥ 5.70
CC(Oc1ccc(C(=O)N2CC[C@]3(c4ccccn4)OCOC3C2)cc1Cl)C(F)(F)F (stereo partly shown) [Compound 156] | ≥ 5.70
O=C(c1ccc(OCCOC(F)(F)F)c(Cl)c1)N1CC[C@]2(c3ccccn3)OCOC2C1 (stereo partly shown) [Compound 157] | ≥ 5.70
COc1cc(C(=O)N2CCC3(c4ccccc4)CC3C2)ccc1OCC(C)(C)F (stereo not shown) [Compound 158] | ≥ 5.70
[2H]C1([2H])OC2CN(C(=O)c3ccc(OCCOC(F)(F)F)c(OC)n3)CC[C@]2(c2ccccc2)O1 (stereo partly shown) [Compound 159] | ≥ 5.70
Cc1nc(C(=O)N2CC[C@]3(c4ccccn4)OCOC3C2)ccc1OCCOC(F)(F)F (stereo partly shown) [Compound 160] | ≥ 5.70
Cc1cc(C(=O)N2CC[C@]3(c4ccccc4)OCOC3C2)ccc1OCC(C)(C)F (stereo partly shown) [Compound 161] | ≥ 5.70
COc1nc(C(=O)N2CC[C@]3(c4cccc(F)c4F)OCOC3C2)ccc1OCCOC(F)(F)F (stereo partly shown) [Compound 162] | ≥ 5.70
COc1cc(C(=O)N2CC[C@]3(c4cc(F)ccc4F)OCOC3C2)ccc1OCCOC(F)(F)F (stereo partly shown) [Compound 163] | ≥ 5.70
CC(COc1ccc(C(=O)N2CC[C@]3(c4ccccn4)OCOC3C2)cc1Cl)CC(F)(F)F (stereo partly shown) [Compound 164] | ≥ 5.70

Compound | pIC50
Cc1cc(C(=O)N2CC[C@]3(c4ccccn4)OCOC3C2)ccc1OCCOC(F)(F)F (stereo partly shown) [Compound 165] | ≥ 5.70
O=C(c1ccc(OCC(F)(F)C(F)F)c(Cl)c1)N1CC[C@]2(c3ccccn3)OCOC2C1 (stereo partly shown) [Compound 166] | ≥ 5.70
Cc1cc(C(=O)N2CC[C@]3(c4nccs4)OCOC3C2)ccc1OCCOC(F)(F)F (stereo partly shown) [Compound 167] | ≥ 5.70
Cc1cc(C(=O)N2CC[C@@]3(c4nccs4)OCOC3C2)ccc1OCCOC(F)(F)F (stereo partly shown) [Compound 168] | ≥ 5.70
COc1cc(C(=O)N2CC[C@]3(c4cccc(C(F)(F)F)n4)OCOC3C2)ccc1OCCOC(F)(F)F (stereo partly shown) [Compound 169] | ≥ 5.70
COc1cc(C(=O)N2CC[C@]3(c4cccc(Cl)c4)OCOC3C2)ccc1OC(C)C(F)(F)F (stereo partly shown) [Compound 170] | ≥ 5.70
Cc1cc(C(=O)N2CCC3(c4ccccc4)CC3C2)ccc1OCC(C)(C)O (stereo not shown) [Compound 171] | ≥ 5.70
[2H]C1([2H])OC2CN(C(=O)c3ccc(OCC4CC(F)(F)C4)c(OC)c3)CC[C@]2(c2cc(F)cc(F)c2)O1 (stereo partly shown) [Compound 172] | ≥ 5.70
[2H]C1([2H])OC2CN(C(=O)c3ccc(OC(C)C(F)(F)F)c(OC)c3)CC[C@]2(c2cc(F)cc(F)c2)O1 (stereo partly shown) [Compound 173] | ≥ 5.70
[2H]C1([2H])OC2CN(C(=O)c3ccc(OCCOC(F)(F)F)c(OC)c3)CC[C@]2(c2cc(F)cc(F)c2)O1 (stereo partly shown) [Compound 174] | ≥ 5.70
COc1nc(C(=O)N2CC[C@]3(c4cccc(Cl)c4)OCOC3C2)ccc1OCC1CC(F)(F)C1 (stereo partly shown) [Compound 175] | ≥ 5.70
COc1cc(C(=O)N2CC[C@]3(c4cccc(Cl)c4)OCOC3C2)ccc1OCC1CC(F)(F)C1 (stereo partly shown) [Compound 176] | ≥ 5.70
[2H]C1([2H])OC2CN(C(=O)c3ccc(OCC4CC(F)(F)C4)c(OC)c3)CC[C@]2(c2cccc(F)c2)O1 (stereo partly shown) [Compound 177] | ≥ 5.70
COc1nc(C(=O)N2CCC3(c4ccccc4)CC3C2)ccc1OCCOC(F)(F)F (stereo not shown) [Compound 178] | ≥ 5.70
COc1cc(C(=O)N2CC[C@]3(c4cc(C(F)(F)F)ccn4)OCOC3C2)ccc1OCCOC(F)(F)F (stereo partly shown) [Compound 179] | ≥ 5.70
COc1nc(C(=O)N2CC[C@]3(c4cccc(F)c4)OCOC3C2)ccc1OCC1CC(F)(F)C1 (stereo partly shown) [Compound 180] | ≥ 5.70
[2H]C1([2H])OC2CN(C(=O)c3ccc(OCCOC(F)(F)F)c(OC)c3)CC[C@]2(c2cccc(F)c2)O1 (stereo partly shown) [Compound 181] | ≥ 5.70
Cc1cc(C(=O)N2CC[C@]3(c4ncccc4Cl)OCOC3C2)ccc1OCCOC(F)(F)F (stereo partly shown) [Compound 182] | ≥ 5.70
COc1nc(C(=O)N2CC[C@]3(c4cccc(Cl)c4)OCOC3C2)ccc1OCCOC(F)(F)F (stereo partly shown) [Compound 183] | ≥ 5.70
COc1cc(C(=O)N2CC[C@]3(c4cccc(F)c4F)OCOC3C2)ccc1OCC1CC(F)(F)C1 (stereo partly shown) [Compound 184] | ≥ 5.70
COc1nc(C(=O)N2CC[C@]3(c4cccc(F)c4)OCOC3C2)ccc1OCC(F)(F)C(F)F (stereo partly shown) [Compound 185] | ≥ 5.70
COc1cc(C(=O)N2CC[C@]3(c4cccc(F)c4F)OCOC3C2)ccc1OCCOC(F)(F)F (stereo partly shown) [Compound 186] | ≥ 5.70
COc1cc(C(=O)N2CC[C@]3(c4cccc(F)c4F)OCOC3C2)ccc1OC(C)C(F)(F)F (stereo partly shown) [Compound 187] | ≥ 5.70

Other lines, results leading:

pIC50 | Compound
≥ 5.70 | CCOc1nc(C(=O)N2CC[C@]3(c4nccs4)OCOC3C2)ccc1OCCOC(F)(F)F (stereo partly shown) [Compound 118]
≥ 5.70 | O=C(c1cc2n(n1)C(C(F)(F)F)CC(C1CC1)N2)N1CCC2(c3ccccc3)CC2C1 (stereo not shown) [Compound 119]
≥ 5.70 | Cc1cc(C(=O)N2CC[C@@]3(c4ccccc4)OCOC3C2)ccc1OCC(C)(C)F (stereo partly shown) [Compound 120]
≥ 5.70 | CC(C)(C)COc1ccc(C(=O)N2CC[C@]3(c4ccccn4)OCOC3C2)cc1Cl (stereo partly shown) [Compound 121]
≥ 5.70 | COc1cc(C(=O)N2CC[C@@]3(c4ccc(F)cc4)OCOC3C2)ccc1OCCOC(F)(F)F (stereo partly shown) [Compound 122]
≥ 5.70 | O=C(c1ccc(OCC(F)(F)C(F)F)c(C(F)(F)F)c1)N1CC[C@]2(c3ccccn3)OCOC2C1 (stereo partly shown) [Compound 123]
≥ 5.70 | Cc1cc(C(=O)N2CC[C@]3(c4ccc(F)cc4)OCOC3C2)ccc1OCC(C)(C)F (stereo partly shown) [Compound 124]
≥ 5.70 | COc1nc(C(=O)N2CC[C@@]3(c4nccs4)OCOC3C2)ccc1OCCOC(F)(F)F (stereo partly shown) [Compound 126]
≥ 5.70 | CC(C)(F)COc1ccc(C(=O)N2CC[C@]3(c4ccccn4)OCO[C@@H]3C2)cc1C(F)(F)F [Compound 127]
≥ 5.70 | O=C(c1ccc(OCCC(F)(F)F)c(C(F)(F)F)c1)N1CC[C@]2(c3ccccn3)OCOC2C1 (stereo partly shown) [Compound 128]
≥ 5.70 | Cc1cc(C(=O)N2CC[C@]3(c4ncccc4F)OCOC3C2)ccc1OCCOC(F)(F)F (stereo partly shown) [Compound 129]
≥ 5.70 | COc1nc(C(=O)N2CC[C@]3(c4ccccn4)OCOC3C2)ccc1OCC1(C(F)(F)F)CC1 (stereo partly shown) [Compound 130]
≥ 5.70 | COc1cc(C(=O)N2CC[C@]3(c4cccc(Cl)c4)OCOC3C2)ccc1OCCC(F)(F)F (stereo partly shown) [Compound 131]
≥ 5.70 | COc1cc(C(=O)N2CC[C@]3(c4ccccc4)OCCOC3C2)ccc1OCCOC(F)(F)F (stereo partly shown) [Compound 132]
≥ 5.70 | Cc1cc(C(=O)N2CC[C@]3(c4ccccc4)C[C@@H]3C2)ccc1OCC(C)(C)O [Compound 133]
≥ 5.70 | Cc1nc(C(=O)N2CCC3(c4ccccc4)CC3C2)ccc1OC(C)C (stereo not shown) [Compound 134]
≥ 5.70 | O=C(c1ccc(OCC2CC2(F)F)c(Cl)c1)N1CC[C@]2(c3ccccn3)OCOC2C1 (stereo partly shown) [Compound 135]
≥ 5.70 | COc1cc(C(=O)N2CCC3(c4ccccc4)CC3C2)ccc1COCCC(F)(F)F (stereo not shown) [Compound 136]
≥ 5.70 | CCOc1nc(C(=O)N2CC[C@@]3(c4nccs4)OCOC3C2)ccc1OCCOC(F)(F)F (stereo partly shown) [Compound 137]
≥ 5.70 | O=C(c1ccc(OCCOC(F)(F)F)c(Cl)c1)N1CC[C@@]2(c3nccs3)OCOC2C1 (stereo partly shown) [Compound 138]
≥ 5.70 | COc1cc(C(=O)N2CC[C@]3(c4ccccc4)OCOC3C2)ccc1OCC1CC(F)(F)C1 (stereo partly shown) [Compound 139]
≥ 5.70 | O=C(c1ccc(OCCOC(F)(F)F)c(Cl)c1)N1CC[C@]2(c3nccs3)OCOC2C1 (stereo partly shown) [Compound 140]
≥ 5.70 | COc1cc(C(=O)N2CC[C@]3(c4cccc(Br)n4)OCOC3C2)ccc1OCCOC(F)(F)F (stereo partly shown) [Compound 141]
≥ 5.70 | Cc1cc(C(=O)N2CC[C@]3(c4cscn4)OCOC3C2)ccc1OCCOC(F)(F)F (stereo partly shown) [Compound 142]

Reference: patent US10233191B2, “Fused piperidine amides as modulators of ion channels” (Vertex Pharmaceuticals Incorporated, priority 2013, dated 2019)
